Results published in patent US20050027003A1, “Methods of therapeutic treatment using retinoids with reduced side effects” (Allergan, Inc., priority 2003, published 2005).
Read-outs that look alike come from different tables or passages of the source.

Legend:
[1] = in vivo; cited from earlier work
[2] = in vivo; cited from earlier work; remark: listed apart in the source
patients [3] = conditions: published data (N = 525); cited from earlier work
[4] = oral; cited from earlier work
patients [5] = conditions: published data (N = 525); cited from earlier work; remark: listed apart in the source
RARs = experiment: Activation of and selectivity among the retinoic acid receptors; assay type: cell-based; conditions: relative to all-trans-retinoic acid, the natural ligand
Source text: (§1) The selection of a retinoid component useful in accordance with the present invention can be accomplished using straightforward, conventional testing and/or assays, such as the transactivation assays set forth in Evans et al., U.S. Pat. Nos., 5,217,867; 5,262,300; 5,310,662; and 5,906,920, each of which is hereby incorporated in its entirety herein by reference, which are well known in the art. Such testing and/or assays can identify suitable useful retinoid components without undue experimentation.
(§2) Other well known and straightforward test methods and/or assays may be employed to determine the selectivity or specificity of an RAR active compound to RAR-alpha, RAR-beta and RAR-gamma. For example, using conventional and well known assays, for example, such as set forth in Klein et al. U.S. Pat. No. 5,776,699, the disclosure of which is incorporated in its entirety herein by reference, and/or the above-noted Evans et al. patents, the selectively or specificity of a compound to RAR-alpha, RAR-beta and RAR-gamma can be determined. Based on the results of such assays, one can determine whether or not a compound is useful in accordance with one or more aspects of the present invention.

[6] = Example 7: effect of body weight on plasma tazarotenic acid Cmax and AUC; assay type: in vivo, human; conditions: 6 mg tazarotene daily
Protocol: The LC-MS/MS test for simultaneous detection of tazarotene and tazarotenic acid may be run as follows. One ml of plasma (EDTA-treated) is diluted with 1.0 ml of water. Diluted plasma is extracted using solid phase extraction (SPE) on a C18 cartridge. The eluate is evaporated, reconstituted in a water/methanol-based mobile phase, and injected onto a 4.6×50 mm, 3 μm pore size C-8 reverse phase high pressure liquid chromatography (HPLC) column (Agilent, Wilmington, Del.). Compounds are gradient-eluted at 1.2 mL/min and detected using an API 3000 triple quadrupole mass spectrometer with an Atmospheric Pressure Chemical Ionization (APCI) source (PE-Sciex, Concord, Ontario, Canada). Molecular reaction monitoring enhances the sensitivity and selectivity of this assay by collisionally dissociating the protonated molecules for the analyte and an internal standard thereby forming the product ions. The specific precursor-product ion pair monitored are m/z 352→324 for tazarotene, m/z 359→331 for the tazarotene internal standard, m/z 324→294 for tazarotenic acid, and m/z 331+298 for the tazarotenic acid internal standard. The lower limit of quantitation at assay range tested is 0.1 ng/mL, with a coefficient of variation and deviation from nominal concentration of <15%. […]

RAR-α = molecular target: T1, RAR-α (Homo sapiens, UniProt P10276); experiment: RAR-α activity; assay type: cell-based
T1 sequence (P10276 1-462): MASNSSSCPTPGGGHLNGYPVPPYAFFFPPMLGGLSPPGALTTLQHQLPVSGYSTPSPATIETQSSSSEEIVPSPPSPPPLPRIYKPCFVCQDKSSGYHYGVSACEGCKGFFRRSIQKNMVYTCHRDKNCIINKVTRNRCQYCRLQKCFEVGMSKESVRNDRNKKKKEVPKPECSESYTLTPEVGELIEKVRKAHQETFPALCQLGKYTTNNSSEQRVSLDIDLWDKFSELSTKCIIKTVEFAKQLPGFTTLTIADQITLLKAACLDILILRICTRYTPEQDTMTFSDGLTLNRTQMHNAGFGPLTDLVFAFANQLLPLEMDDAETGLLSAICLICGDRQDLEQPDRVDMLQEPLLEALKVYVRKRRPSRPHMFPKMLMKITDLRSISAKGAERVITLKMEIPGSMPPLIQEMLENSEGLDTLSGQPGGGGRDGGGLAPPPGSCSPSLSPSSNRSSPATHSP
Source text: as §1, §2

[7] = Example 1: 6.3 mg oral tazarotene with high-fat meal vs 8-10 hour fast, pharmacokinetics; assay type: in vivo, human
Protocol: The LC-MS/MS test for simultaneous detection of tazarotene and tazarotenic acid may be run as follows. One ml of plasma (EDTA-treated) is diluted with 1.0 ml of water. Diluted plasma is extracted using solid phase extraction (SPE) on a C18 cartridge. The eluate is evaporated, reconstituted in a water/methanol-based mobile phase, and injected onto a 4.6×50 mm, 3 μm pore size C-8 reverse phase high pressure liquid chromatography (HPLC) column (Agilent, Wilmington, Del.). Compounds are gradient-eluted at 1.2 mL/min and detected using an API 3000 triple quadrupole mass spectrometer with an Atmospheric Pressure Chemical Ionization (APCI) source (PE-Sciex, Concord, Ontario, Canada). Molecular reaction monitoring enhances the sensitivity and selectivity of this assay by collisionally dissociating the protonated molecules for the analyte and an internal standard thereby forming the product ions. The specific precursor-product ion pair monitored are m/z 352→324 for tazarotene, m/z 359→331 for the tazarotene internal standard, m/z 324→294 for tazarotenic acid, and m/z 331+298 for the tazarotenic acid internal standard. The lower limit of quantitation at assay range tested is 0.1 ng/mL, with a coefficient of variation and deviation from nominal concentration of <15%.

Structure (SMILES): COc1cc(C)c(/C=C/C(C)=C/C=C/C(C)=C/C(=O)O)c(C)c1C [acitretin]
- bioavailability vs body weight [1]: increased with a reduced body weight
- interaction with coadministered contraceptives [2]: interferes with the contraceptive effect
- Adverse event: Alopecia (patients [3]): 319 (60.8) number (%) of patients
- Adverse event: Arthralgia (patients [3]): 102 (19.4) number (%) of patients
- Adverse event: Atrophy of skin (patients [3]): 64 (12.2) number (%) of patients
- Adverse event: Back pain (patients [3]): 41 (7.8) number (%) of patients
- Adverse event: Cheilitis (patients [3]): 429 (81.7) number (%) of patients
- Adverse event: Dry Skin (patients [3]): 174 (33.1) number (%) of patients
- Adverse event: Dry mouth/Oral dryness (patients [3]): 76 (14.5) number (%) of patients
- Adverse event: Epistaxis (patients [3]): 61 (11.6) number (%) of patients
- Adverse event: Erythematous rash/Erythema (patients [3]): 57 (10.9) number (%) of patients
- Adverse event: Hyperesthesia (patients [3]): 66 (12.6) number (%) of patients
- Adverse event: Nail Disorder (patients [3]): 170 (32.4) number (%) of patients
- Adverse event: Paresthesia (patients [3]): 56 (10.7) number (%) of patients
- Adverse event: Paronychia/Nail disorder (patients [3]): 66 (12.6) number (%) of patients
- Adverse event: Pruritus (patients [3]): 157 (29.9) number (%) of patients
- Adverse event: Rhinitis (patients [3]): 153 (29.1) number (%) of patients
- Adverse event: Rigors/Chills (patients [3]): 67 (12.8) number (%) of patients
- Adverse event: Skin peeling/Desquamation (patients [3]): 345 (65.7) number (%) of patients
- Adverse event: Sticky skin/Skin disorder (patients [3]): 129 (24.6) number (%) of patients
- Adverse event: Xerophthalmia/Eye disorder (patients [3]): 112 (21.3) number (%) of patients

Structure (SMILES): CCOC(=O)/C=C(C)/C=C/C=C(C)/C=C/c1c(C)cc(OC)c(C)c1C [etretinate]
- bioavailability vs body weight [1]: increased with a reduced body weight

Structure (SMILES): CC1=C(/C=C/C(C)=C/C=C/C(C)=C\C(=O)O)C(C)(C)CCC1 [isotretinoin]
- bioavailability vs body weight [1]: increased with a reduced body weight
- interaction with coadministered contraceptives [2]: decreases blood concentrations of both ethinyl estradiol and norethindrone
- total dose to reach the same peak blood concentration in the fasted state as following a high fat meal [4]: more than doubled
- Adverse event: Cheilitis (patients [5]): 472 (90.2) number (%) of patients
- Adverse event: Conjunctivitis (patients [5]): 201 (38.4) number (%) of patients
- Adverse event: Desquamation central face/Desquamation (patients [5]): 187 (35.8) number (%) of patients
- Adverse event: Dry Skin (patients [5]): 172 (32.9) number (%) of patients
- Adverse event: Dry nose (patients [5]): 136 (26.0) number (%) of patients
- Adverse event: Epistaxis (patients [5]): 121 (23.1) number (%) of patients
- Adverse event: Fingertip peeling/Desquamation (patients [5]): 63 (12.0) number (%) of patients
- Adverse event: Headache (patients [5]): 44 (8.4) number (%) of patients
- Adverse event: Irritation of eyes (patients [5]): 85 (16.3) number (%) of patients
- Adverse event: Joint pain/Arthralgia (patients [5]): 60 (11.5) number (%) of patients
- Adverse event: Pruritus (patients [5]): 127 (24.3) number (%) of patients
- Adverse event: Rash-dermatitis/Rash (patients [5]): 82 (15.7) number (%) of patients
- Adverse event: Red Scaly face/Desquamation (patients [5]): 54 (10.3) number (%) of patients
- Adverse event: Skin fragility/Skin disorder (patients [5]): 164 (31.4) number (%) of patients

Structure (SMILES): CC1(C)CCSc2ccc(C#Cc3ccc(C(=O)O)cn3)cc21 [tazarotenic acid]
- receptor specificity and selectivity (RARs): specificity for the RARs and selectivity for RAR-β and RAR-γ
- correlation of AUC with body weight ([6]; day 0): may be a correlation
- correlation between either Cmax or AUC and body weight ([6]; day 9): no correlation
- RAR-α activity (RAR-α): minimal
- average ratio of Cmax (test/reference) ([7]; Day 0, high-fat meal vs fasted): 1.00
- effect of high-fat meal on bioavailability or pharmacokinetics ([7]; single and multiple dose): does not substantially affect
